According to the supplement of paper PMC10307832:

Key:
Assay in all cases: relative viability (nuclei count vs DMSO), 5 days (fraction); higher = more cells survive
[1] = compound: CC(C)=CC[C@@H](O)C1=CC(=O)c2c(O)ccc(O)c2C1=O [Shikonin] + Nc1nc2[nH]cc(CCc3ccc(C(=O)N[C@@H](CCC(=O)O)C(=O)O)cc3)c2c(=O)[nH]1 [Pemetrexed] (partner 0.2 µM)
In short: (§1)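 Lung cancer cell lines in 1536-well plates were dosed by pin tool the day after seeding, either with one drug alone or with a fixed anchor-drug dose plus five library-drug doses (not always all listed) in √10 steps. After 5 days, cells were fixed and their nuclei stained in one step (final 0.05% Triton X-100, 1% formaldehyde, 1 ug/ml Hoechst), then counted on 4× images. Relative viability is the nuclei count in treated wells divided by that in vehicle wells. Values are medians of duplicate plates.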

[2] = compound: CC(C)N(CCCNC(=O)Nc1ccc(C(C)(C)C)cc1)C[C@H]1O[C@@H](n2ccc3c(N)ncnc32)[C@H](O)[C@@H]1O + Nc1ncn([C@H]2C[C@H](O)[C@@H](CO)O2)c(=O)n1 [Decitabine] (partner 2 µM)
In short: as §1

[3] = compound: CC(C)N(CCCNC(=O)Nc1ccc(C(C)(C)C)cc1)C[C@H]1O[C@@H](n2ccc3c(N)ncnc32)[C@H](O)[C@@H]1O + O=C(c1cc(Cc2n[nH]c(=O)c3ccccc23)ccc1F)N1CCN(C(=O)C2CC2)CC1 [Olaparib] (partner 8 µM)
In short: as §1

[4] = compound: CC(C)N(CCCNC(=O)Nc1ccc(C(C)(C)C)cc1)C[C@H]1O[C@@H](n2ccc3c(N)ncnc32)[C@H](O)[C@@H]1O + COc1cccc2cc(-c3nc([C@H]4CC[C@H](C(=O)O)CC4)n4ncnc(N)c34)[nH]c12 [OSI-027] (partner 0.5 µM)
In short: as §1

| Cell Line | relative viability ([1]; first compound 0.01 µM) | relative viability ([1]; first compound 0.1 µM) | relative viability ([1]; first compound 0.3162 µM) | relative viability ([1]; first compound 1 µM) | relative viability ([2]; first compound 0.08 µM) | relative viability ([2]; first compound 0.253 µM) | relative viability ([2]; first compound 0.8 µM) | relative viability ([2]; first compound 2.53 µM) | relative viability ([2]; first compound 8 µM) | relative viability ([3]; first compound 0.08 µM) | relative viability ([3]; first compound 0.253 µM) | relative viability ([3]; first compound 0.8 µM) | relative viability ([3]; first compound 2.53 µM) | relative viability ([3]; first compound 8 µM) | relative viability ([4]; first compound 0.08 µM) | relative viability ([4]; first compound 0.253 µM) | relative viability ([4]; first compound 0.8 µM) | relative viability ([4]; first compound 2.53 µM) | relative viability ([4]; first compound 8 µM) |
| --- | --- | --- | --- | --- | --- | --- | --- | --- | --- | --- | --- | --- | --- | --- | --- | --- | --- | --- | --- |
| NCI-H1437 | 0.332 | 0.37 | 0.291 | 0.354 | 0.563 | 0.569 | 0.619 | 0.553 | 0.592 | 0.604 | 0.642 | 0.624 | 0.592 | 0.561 | 0.804 | 0.831 | 0.81 | 0.891 | 0.867 |
| COR-L23 | 0.188 | 0.19 | 0.208 | 0.206 | 0.46 | 0.33 | 0.467 | 0.48 | 0.456 | 0.297 | 0.376 | 0.365 | 0.347 | 0.29 | 0.758 | 0.739 | 0.697 | 0.735 | 0.689 |
| ABC-1 |  |  |  |  | 1.03 | 1.23 |  | 1.15 | 1.32 | 0.69 | 0.745 |  | 1.47 | 0.8 | 0.497 | 0.588 |  | 0.565 | 0.529 |
| NCI-H522 | 0.937 | 1 | 1.3 | 1.22 | 0.64 | 0.737 | 0.71 | 0.729 | 0.696 | 0.754 | 0.636 | 0.583 | 0.623 | 0.732 | 0.58 | 0.895 | 0.848 | 0.643 | 0.809 |
| PC-3 [JPC-3] | 1.21 | 1.44 | 1.05 | 1.63 | 0.766 | 0.726 |  | 0.799 | 0.864 | 1.12 | 1.15 |  | 1.11 | 1.07 | 0.801 | 0.867 | 0.718 | 0.779 | 0.721 |
| SW 900 | 0.422 | 0.548 | 0.468 | 0.535 | 0.387 | 0.43 |  | 0.42 | 0.404 | 0.783 | 0.875 |  | 0.798 | 0.772 | 0.482 | 0.569 |  | 0.691 | 0.512 |
| A549 |  |  |  |  | 0.278 | 0.292 | 0.291 | 0.215 | 0.189 | 0.409 | 0.32 | 0.251 | 0.535 | 0.317 |  |  |  |  |  |
| A-427 | 1.02 | 1.04 | 1.01 | 1.24 | 0.556 | 0.535 | 0.568 | 0.541 | 0.568 | 0.71 | 0.779 | 0.613 | 0.771 | 0.702 | 0.439 | 0.492 | 0.535 | 0.502 | 0.478 |
| NCI-H1792 | 0.819 | 0.82 | 0.689 | 0.958 | 0.527 |  | 0.56 | 0.529 | 0.607 | 0.434 |  | 0.365 | 0.374 | 0.399 | 0.693 | 0.702 | 0.716 | 0.586 | 0.72 |
| LCLC-97TM1 | 0.123 | 0.162 | 0.155 | 0.16 | 0.215 | 0.305 | 0.243 | 0.242 | 0.194 | 0.343 | 0.318 | 0.205 | 0.319 | 0.294 | 0.555 | 0.642 | 0.716 | 0.557 | 0.679 |
| NCI-H1703 |  |  |  |  |  |  |  |  |  | 0.52 | 0.446 |  | 0.571 | 0.349 |  |  |  |  |  |
| LCLC-103H | 0.436 | 0.49 | 0.46 | 0.477 | 0.688 | 0.719 | 0.666 | 0.716 | 0.68 | 0.734 | 0.697 | 0.699 | 0.77 | 0.775 | 0.447 | 0.58 | 0.495 | 0.451 | 0.467 |
| SK-LU-1 | 1.14 | 1.17 | 1.01 | 0.994 | 0.626 | 0.642 | 0.657 | 0.702 | 0.568 | 0.424 | 0.448 | 0.516 | 0.552 | 0.469 | 0.372 | 0.424 | 0.352 | 0.405 | 0.338 |
| BEN | 0.765 | 0.856 | 0.78 | 0.87 | 0.602 | 0.596 | 0.739 | 0.717 | 0.678 | 0.974 | 1.25 | 1.24 | 1.03 | 1.02 | 0.301 | 0.277 | 0.298 | 0.294 | 0.275 |
| NCI-H1666 | 0.869 | 0.854 | 0.916 | 0.861 | 0.722 | 0.697 | 0.808 | 0.832 | 0.673 | 0.704 | 0.755 | 0.828 | 0.739 | 0.698 | 0.745 | 1.04 | 0.611 | 0.829 | 0.755 |
| Calu-6 |  |  |  |  |  |  |  |  |  | 0.521 | 0.53 | 0.547 | 0.552 | 0.57 |  |  |  |  |  |
| EBC-1 |  |  |  |  |  |  |  |  |  | 0.766 | 0.746 | 0.76 | 0.85 | 0.657 |  |  |  |  |  |
| NCI-H1299 |  |  |  |  |  |  |  |  |  | 1.03 | 0.926 | 1 | 0.96 | 0.923 |  |  |  |  |  |
| IA-LM |  |  |  |  |  |  |  |  |  | 0.776 | 0.956 | 0.937 | 0.931 | 0.686 |  |  |  |  |  |
| NCI-H727 |  |  |  |  | 0.907 | 0.687 | 0.885 | 0.905 | 0.973 | 0.587 | 0.676 | 0.673 | 0.759 | 0.647 | 0.635 | 0.597 | 0.521 | 0.495 | 0.666 |
| NCI-H2228 | 0.314 | 0.355 | 0.38 | 0.355 |  |  |  |  |  | 0.879 | 0.712 | 0.427 | 0.601 | 0.615 | 0.614 | 0.632 | 0.526 | 0.623 | 0.78 |
| CAL-12T | 1.28 | 1.41 | 1.09 | 1.24 |  |  |  |  |  | 0.735 | 0.775 | 0.702 | 0.698 | 0.723 | 0.603 | 0.498 | 0.635 | 0.579 | 0.53 |
